Experimental data published in article PMC11410929, “Biochemical and crystallographic studies of L,D-transpeptidase 2 from Mycobacterium tuberculosis with its natural monomer substrate” (Communications Biology, 2024).
Like-named read-outs stand apart in the source and are kept apart here. *1 amine or outer side, *2 acyl side, *3 side chain or, on linkers, in order; H or OH if unused. Where a SMILES comes first, the peptide text is derived from it. [ ]: non-standard residue; d: D form. d(γGlu) = O=C(O)[C@@H](CCC(=O)[*:2])N[*:1]

Tests used:
[1] = target: T1, LdtMt2 (Mycobacterium tuberculosis, UniProt I6Y9J2); assay: biochemical; format: binding; details: for ΔTm at 500 µM: pH 7.5, read-out: Shift in melting temperature compared to unmodified LdtMt2, 500 µM; for ΔTm at 1000 µM: pH 7.5, read-out: Shift in melting temperature compared to unmodified LdtMt2, 1 mM; for Shift in melting temperature compared to unmodified LdtMt2, 500 µM / Shift in melting temperature compared to unmodified LdtMt2, 1 mM / Tm 500 µM / Tm 1 mM: pH 7.5
T1 sequence (I6Y9J2 56-408): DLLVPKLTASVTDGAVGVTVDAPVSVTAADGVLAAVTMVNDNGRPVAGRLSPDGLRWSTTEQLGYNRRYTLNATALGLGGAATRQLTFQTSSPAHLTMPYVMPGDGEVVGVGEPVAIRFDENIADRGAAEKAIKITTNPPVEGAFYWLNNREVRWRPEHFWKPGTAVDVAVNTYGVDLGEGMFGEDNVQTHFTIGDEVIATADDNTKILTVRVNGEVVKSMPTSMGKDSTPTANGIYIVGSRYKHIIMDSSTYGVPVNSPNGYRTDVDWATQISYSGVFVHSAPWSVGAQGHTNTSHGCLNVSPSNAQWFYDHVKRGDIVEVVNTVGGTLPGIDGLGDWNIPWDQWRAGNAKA
Experimental: Differential scanning fluorometric thermal shift assays[32]
LdtMt2 (5 µM) was incubated with peptidoglycan fragments (500 µM or 1 mM) in buffer (50 mM tris pH 7.5) for 30 minutes at room temperature, after which time SYPRO Orange (final concentration 6x, according to manufacturer’s definition, Invitrogen) was added. Melting temperatures […]
See Methods for experimental details.
Table S1. […] The melting

[2] = target: T1, LdtMt2; assay: biochemical; format: biochemical
[3] = target: DAAO and HRP; assay: Transpeptidase interference assay (no LdtMt2, D-Ala as substrate); format: biochemical; details: for Transpeptidase interference assay pIC50 (mean ± SD): DAAO 2 U/mL, HRP 2 U/mL, FAD 40 µM, Amplex red 10 µM, 30 min rt, then D-alanine 500 nM, pH 8.0, quadruplicate
Experimental: The transpeptidase interference assay was performed as described above, with the modification that the LdtMt2 mixture was replaced by 5 µL assay buffer, and the substrate was replaced by D-Ala (500 nM final concentration). Data were analysed using Prism 10 (GraphPad).
Figure S14. Dose-response curves of the transpeptidase interference assay with compounds
14-24. The specified inhibitors were incubated with DAAO (2 U/mL), HRP (2 U/mL), FAD (40 μM) and
Amplex red (10 μM) in 50 mM sodium phosphate pH 8.0 with 100 mM NaCl at room temperature for 30
minutes, after which time D-alanine (500 nM) was added. The pIC50 values and compound structures
See Methods for experimental details. Individual data points are shown.

[4] = target: T1, LdtMt2; details: thiol-reactive fluorescent probe assay; quadruplicate; ref 6,7 (supplement); cited from earlier work
[5] = target: T1, LdtMt2; details: pH 8
[6] = target: T1, LdtMt2; details: pH 7.5
[7] = target: T1, LdtMt2; format: biochemical; details: pH 7.5
[8] = target: T1, LdtMt2; details: cited from earlier work
[9] = LdtMt2 500 nM, 30 min preincubation rt, substrate 1 35 µM, pH 8.0, 37 °C, n=3, read-out: pIC50, LdtMt2 inhibition by non-substrate peptidoglycan fragments (converted)

## C[C@H](N)C(=O)N[C@H](CCC(=O)N[C@@H](CCCCN)C(=O)N[C@H](C)C(=O)N[C@H](C)C(=O)O)C(=O)O [Compound 8, L-Ala-D-iGlu-L-Lys-D-Ala-D-Ala, reference compound]
[1]
  ΔTm at 500 µM: 1.5 °C
  ΔTm at 1000 µM: 2 °C
[2]; [9]
  IC50: 15.8 µM

## C[C@H](N)C(=O)N[C@H](CCC(=O)N[C@@H](CCCCN)C(=O)N[C@H](C)C(=O)O)C(=O)O [Compound 10, L-Ala-D-iGlu-L-Lys-D-Ala, reference compound] (H-A[d(γGlu)]K[dA]-OH)
[1]
  ΔTm at 500 µM: 1.5 °C
  ΔTm at 1000 µM: 3 °C
[2]; [9]
  IC50: 15.8 µM

## C[C@H](N)C(=O)N[C@H](CCC(=O)N[C@@H](CCC[C@@H](N)C(=O)O)C(=O)O)C(=O)O [Compound 12, reference compound]
[1]
  ΔTm at 500 µM: 0.5 °C
  ΔTm at 1000 µM: 1 °C

## N[C@H](CCC[C@H](NC(=O)CC[C@@H](N)C(=O)O)C(=O)O)C(=O)O [Compound 13, D-γ-Glu-m-DAP, reference compound]
[1]
  ΔTm at 500 µM: 1 °C
  ΔTm at 1000 µM: 1.5 °C

## C[C@@H](O)[C@H]1C(=O)N2C(C(=O)O)=C(S[C@@H]3CN[C@H](C(=O)N(C)C)C3)[C@H](C)[C@H]12 [Compound 14, Meropenem]
[3]
  Transpeptidase interference assay pIC50 (mean ± SD): < 4.0
[2]; LdtMt2 500 nM, 30 min preincubation rt, substrate 1 35 µM, 50 mM sodium phosphate pH 8.0, 100 mM NaCl, 37 °C, quadruplicate, read-out: Transpeptidase activity assay pIC50 (mean ± SD) (converted)
  IC50: 0.631 µM
[4]
  Fluorogenic probe assay pIC50 (mean ± SD): 5.9 ± 0.04

## C[C@@H](O)[C@H]1C(=O)N2C(C(=O)O)=C([C@H]3CCCO3)S[C@H]12 [Compound 15, Faropenem]
[3]
  Transpeptidase interference assay pIC50 (mean ± SD): < 4.0

## O=c1c2ccccc2[se]n1-c1ccccc1 [Compound 24, Ebselen]
[3]
  Transpeptidase interference assay pIC50 (mean ± SD): 5.0 ± 0.4
[3]; inhibition of DAAO and HRP, in words
  Interference with the DAAO/HRP assay: cause interference
[2]; LdtMt2 500 nM, 30 min preincubation rt, substrate 1 35 µM, 50 mM sodium phosphate pH 8.0, 100 mM NaCl, 37 °C, quadruplicate
  Transpeptidase activity assay pIC50 (mean ± SD): 6.8 ± 0.2
[4]
  Fluorogenic probe assay pIC50 (mean ± SD): 6.7 ± 0.04

## GlcNAc-MurNAc-L-Ala-D-iGluNH2-m-DAPNH2-D-Ala [Compound 1]
[5]
  Reaction rate: 120.0 ± 1.7 RFU min^−1
  Vmax: Ambiguous
[1]
  Shift in melting temperature compared to unmodified LdtMt2, 500 µM: +1.5 °C
  Shift in melting temperature compared to unmodified LdtMt2, 1 mM: +2.0 °C
  Tm 500 µM: 45 °C
  Tm 1 mM: 45.5 °C
[6]
  Covalent adducts of LdtMt2 (SPE-MS): no covalent adducts of LdtMt2 were observed
[7]
  LdtMt2 turnover / transpeptidase product formation (LC-MS): led to formation of products

## GlcNAc-MurNAc-L-Ala-D-iGluNH2-m-DAPNH2-D-Ala-D-Ala [Compound 4]
[1]
  Shift in melting temperature compared to unmodified LdtMt2, 1 mM: +2.5 °C
  Tm 500 µM: 45.5 °C
  Tm 1 mM: 46 °C
[2]; pH 8
  LdtMt2 inhibition by non-substrate peptidoglycan fragments, in words: modest LdtMt2 inhibition
[7]
  LdtMt2 turnover / transpeptidase product formation (LC-MS): did not manifest evidence for reaction

## GlcNAc-Muramitol-L-Ala-D-iGluNH2-m-DAPNH2-D-Ala [Compound 2]
[7]
  LdtMt2 turnover / transpeptidase product formation (LC-MS): led to formation of products

## GlcNAc-muramitol-L-Ala-D-iGluNH2-m-DAPNH2-D-Ala-D-Ala [reduced pentapeptide monomer of Mtb]
[8]
  LdtMt2 substrate or not: is not an LdtMt2 substrate

## L-Ala-D-iGluNH2-L-Lys-D-Ala [Compound 11]
[7]
  LdtMt2 turnover / transpeptidase product formation (LC-MS): is not a substrate for LdtMt2

## lactoyl-L-Ala-D-iGluNH2-m-DAPNH2-D-Ala [Compound 3]
[5]
  Km: 6.2 mM
  Reaction rate: 224.2 ± 2.6 RFU min^−1
  Vmax: 1.4 ± 0.5
  kcat: 2.6 ± 0.9
  kcat/KM: 0.07 M⁻¹ s⁻¹
  kcat/Km: 0.07 M⁻¹ s⁻¹
[1]
  Shift in melting temperature compared to unmodified LdtMt2, 500 µM: +1.5 °C
  Shift in melting temperature compared to unmodified LdtMt2, 1 mM: +2.0 °C
  Tm 500 µM: 45 °C
  Tm 1 mM: 45.5 °C
[6]
  Covalent adducts of LdtMt2 (SPE-MS): no covalent adducts of LdtMt2 were observed
[7]
  LdtMt2 turnover / transpeptidase product formation (LC-MS): led to formation of products
